Experimental data published in patent publication US6710086B1, “Protected forms of pharmacologically active agents and uses therefor” (Medinox, Inc., priority 2000, dated 2004).

Tested on: adjuvant-induced arthritis
Details: high doses: naproxen 10 mg/kg, conjugate 18 mg/kg, oral daily on days 5-8 and 11-14; day 15

COc1ccc2cc([C@H](C)C(=O)O)ccc2c1 [Naproxen, (S)-(+)-methoxy-α-methyl-2-naphthaleneacetic acid]
Reduction of swelling compared to control: approximately 70%
